According to ChEMBL document CHEMBL5291721, “A preclinical secondary pharmacology resource illuminates target-adverse drug reaction associations of marketed drugs” (Nat Commun, 2023):

Columns and labels:
[1] = molecular target: T1, Alpha-2A adrenergic receptor (Homo sapiens, UniProt P08913); format: functional, cell-based
T1 sequence (P08913 whole entry): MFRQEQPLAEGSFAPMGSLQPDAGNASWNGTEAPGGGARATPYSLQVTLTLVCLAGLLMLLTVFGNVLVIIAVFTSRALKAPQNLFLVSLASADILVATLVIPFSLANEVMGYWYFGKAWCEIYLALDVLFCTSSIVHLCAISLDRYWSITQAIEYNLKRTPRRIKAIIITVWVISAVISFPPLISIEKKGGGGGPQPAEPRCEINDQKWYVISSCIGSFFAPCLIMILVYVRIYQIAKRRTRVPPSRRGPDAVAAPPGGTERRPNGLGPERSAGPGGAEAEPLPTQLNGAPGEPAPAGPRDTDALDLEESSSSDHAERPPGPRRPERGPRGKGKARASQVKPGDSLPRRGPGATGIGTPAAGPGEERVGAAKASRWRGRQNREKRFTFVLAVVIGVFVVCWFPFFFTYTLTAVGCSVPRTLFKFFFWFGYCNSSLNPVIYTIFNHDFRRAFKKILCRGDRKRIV

Androgen receptor = molecular target: T2, Androgen receptor (Rattus norvegicus, UniProt P15207); format: functional
T2 sequence (P15207 whole entry): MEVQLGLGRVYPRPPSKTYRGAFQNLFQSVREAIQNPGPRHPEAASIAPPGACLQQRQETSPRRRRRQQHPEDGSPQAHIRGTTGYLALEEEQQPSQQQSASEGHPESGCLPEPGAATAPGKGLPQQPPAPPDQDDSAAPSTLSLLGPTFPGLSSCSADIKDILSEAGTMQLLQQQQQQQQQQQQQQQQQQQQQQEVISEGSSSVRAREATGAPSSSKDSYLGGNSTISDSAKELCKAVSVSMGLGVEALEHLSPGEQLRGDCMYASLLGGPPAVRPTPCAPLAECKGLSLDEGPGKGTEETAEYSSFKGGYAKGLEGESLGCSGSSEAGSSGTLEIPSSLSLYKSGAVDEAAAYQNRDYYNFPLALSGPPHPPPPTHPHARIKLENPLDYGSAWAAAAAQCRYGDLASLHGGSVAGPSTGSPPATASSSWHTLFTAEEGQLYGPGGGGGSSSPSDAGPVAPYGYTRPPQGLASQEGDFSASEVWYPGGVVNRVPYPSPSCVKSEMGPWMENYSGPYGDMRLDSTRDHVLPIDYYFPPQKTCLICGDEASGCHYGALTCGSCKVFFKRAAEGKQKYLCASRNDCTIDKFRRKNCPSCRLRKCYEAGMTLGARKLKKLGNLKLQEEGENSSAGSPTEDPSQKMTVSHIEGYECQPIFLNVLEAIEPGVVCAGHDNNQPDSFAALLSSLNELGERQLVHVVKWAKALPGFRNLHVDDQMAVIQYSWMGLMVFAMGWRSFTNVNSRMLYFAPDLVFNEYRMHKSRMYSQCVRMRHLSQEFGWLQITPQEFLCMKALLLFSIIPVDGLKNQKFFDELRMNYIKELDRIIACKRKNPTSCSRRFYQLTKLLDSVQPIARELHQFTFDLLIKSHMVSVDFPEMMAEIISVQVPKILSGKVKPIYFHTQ

Vasopressin V1a receptor = Vasopressin V1a receptor (Homo sapiens, UniProt P37288)
Sequence of Vasopressin V1a receptor (P37288 whole entry): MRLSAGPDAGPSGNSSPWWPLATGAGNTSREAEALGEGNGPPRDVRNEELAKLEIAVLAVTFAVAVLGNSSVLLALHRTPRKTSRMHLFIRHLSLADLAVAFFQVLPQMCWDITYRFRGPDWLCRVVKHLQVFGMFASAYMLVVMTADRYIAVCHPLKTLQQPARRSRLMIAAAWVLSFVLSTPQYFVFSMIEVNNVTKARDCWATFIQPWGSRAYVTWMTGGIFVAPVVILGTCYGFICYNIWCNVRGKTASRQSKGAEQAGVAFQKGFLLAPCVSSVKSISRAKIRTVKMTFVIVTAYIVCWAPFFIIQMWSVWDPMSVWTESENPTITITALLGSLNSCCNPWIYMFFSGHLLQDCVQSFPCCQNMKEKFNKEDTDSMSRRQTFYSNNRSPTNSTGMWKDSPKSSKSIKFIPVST

[2] = molecular target: Voltage-dependent L-type calcium channel subunit alpha-1C (Rattus norvegicus, UniProt P22002); format: functional
Sequence of Voltage-dependent L-type calcium channel subunit alpha-1C (P22002 whole entry): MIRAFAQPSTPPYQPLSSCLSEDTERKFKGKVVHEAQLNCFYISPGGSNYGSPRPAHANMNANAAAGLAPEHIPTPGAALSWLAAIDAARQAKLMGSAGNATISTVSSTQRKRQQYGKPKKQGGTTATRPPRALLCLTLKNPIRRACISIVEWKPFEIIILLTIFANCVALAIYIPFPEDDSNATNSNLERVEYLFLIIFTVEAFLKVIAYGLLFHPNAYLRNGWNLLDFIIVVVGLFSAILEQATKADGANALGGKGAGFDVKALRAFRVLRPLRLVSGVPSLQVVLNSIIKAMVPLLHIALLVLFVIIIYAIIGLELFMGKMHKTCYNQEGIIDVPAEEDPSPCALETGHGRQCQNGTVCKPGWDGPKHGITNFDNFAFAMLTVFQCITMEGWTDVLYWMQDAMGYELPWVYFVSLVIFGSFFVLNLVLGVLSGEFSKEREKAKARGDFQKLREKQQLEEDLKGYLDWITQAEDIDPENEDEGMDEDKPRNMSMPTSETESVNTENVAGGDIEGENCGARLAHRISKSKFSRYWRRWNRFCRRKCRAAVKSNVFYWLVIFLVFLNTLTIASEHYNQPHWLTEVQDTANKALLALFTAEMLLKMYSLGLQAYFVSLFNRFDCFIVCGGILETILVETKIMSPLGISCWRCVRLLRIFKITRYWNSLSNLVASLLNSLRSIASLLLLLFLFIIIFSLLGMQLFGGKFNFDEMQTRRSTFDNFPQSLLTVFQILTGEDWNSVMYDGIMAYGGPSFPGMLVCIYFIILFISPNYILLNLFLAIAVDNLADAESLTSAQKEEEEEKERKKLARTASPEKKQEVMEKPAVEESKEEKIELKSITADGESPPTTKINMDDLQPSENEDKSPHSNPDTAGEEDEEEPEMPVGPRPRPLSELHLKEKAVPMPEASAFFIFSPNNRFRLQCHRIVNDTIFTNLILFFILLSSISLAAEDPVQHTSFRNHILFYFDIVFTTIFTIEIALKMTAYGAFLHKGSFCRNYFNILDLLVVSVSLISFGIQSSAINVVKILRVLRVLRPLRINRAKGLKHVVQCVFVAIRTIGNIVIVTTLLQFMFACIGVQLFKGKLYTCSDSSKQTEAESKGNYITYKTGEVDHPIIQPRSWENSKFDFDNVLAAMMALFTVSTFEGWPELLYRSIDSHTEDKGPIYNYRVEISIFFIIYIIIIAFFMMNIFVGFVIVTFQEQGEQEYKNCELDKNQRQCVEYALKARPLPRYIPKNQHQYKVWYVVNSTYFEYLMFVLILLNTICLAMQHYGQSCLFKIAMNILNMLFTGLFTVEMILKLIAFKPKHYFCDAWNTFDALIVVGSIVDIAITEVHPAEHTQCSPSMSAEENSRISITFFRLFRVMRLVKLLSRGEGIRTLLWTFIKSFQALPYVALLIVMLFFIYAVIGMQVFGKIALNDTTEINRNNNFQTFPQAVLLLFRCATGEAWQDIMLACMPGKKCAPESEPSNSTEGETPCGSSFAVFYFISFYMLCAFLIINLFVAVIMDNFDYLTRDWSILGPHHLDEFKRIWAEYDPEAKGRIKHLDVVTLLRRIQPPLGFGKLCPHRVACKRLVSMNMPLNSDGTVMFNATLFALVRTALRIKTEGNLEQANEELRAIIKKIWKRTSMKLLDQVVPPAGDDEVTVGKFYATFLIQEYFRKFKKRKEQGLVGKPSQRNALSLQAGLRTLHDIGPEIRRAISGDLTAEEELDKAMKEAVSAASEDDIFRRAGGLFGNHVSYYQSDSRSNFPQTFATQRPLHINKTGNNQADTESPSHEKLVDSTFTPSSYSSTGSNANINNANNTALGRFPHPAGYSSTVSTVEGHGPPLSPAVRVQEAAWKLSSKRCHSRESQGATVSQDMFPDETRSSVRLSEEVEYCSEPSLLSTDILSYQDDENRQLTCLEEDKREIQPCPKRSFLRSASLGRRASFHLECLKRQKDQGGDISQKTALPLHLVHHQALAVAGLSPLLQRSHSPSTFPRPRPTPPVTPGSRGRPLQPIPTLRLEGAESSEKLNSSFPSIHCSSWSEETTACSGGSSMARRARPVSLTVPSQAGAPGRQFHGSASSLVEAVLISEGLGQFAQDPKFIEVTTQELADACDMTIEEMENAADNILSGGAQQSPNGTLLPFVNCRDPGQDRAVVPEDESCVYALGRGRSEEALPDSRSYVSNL

[3] = molecular target: Gamma-aminobutyric acid receptor subunit alpha-1 (Rattus norvegicus, UniProt P62813)
Motilin receptor = Motilin receptor (Homo sapiens, UniProt O43193)
Sequence of Motilin receptor (O43193 whole entry): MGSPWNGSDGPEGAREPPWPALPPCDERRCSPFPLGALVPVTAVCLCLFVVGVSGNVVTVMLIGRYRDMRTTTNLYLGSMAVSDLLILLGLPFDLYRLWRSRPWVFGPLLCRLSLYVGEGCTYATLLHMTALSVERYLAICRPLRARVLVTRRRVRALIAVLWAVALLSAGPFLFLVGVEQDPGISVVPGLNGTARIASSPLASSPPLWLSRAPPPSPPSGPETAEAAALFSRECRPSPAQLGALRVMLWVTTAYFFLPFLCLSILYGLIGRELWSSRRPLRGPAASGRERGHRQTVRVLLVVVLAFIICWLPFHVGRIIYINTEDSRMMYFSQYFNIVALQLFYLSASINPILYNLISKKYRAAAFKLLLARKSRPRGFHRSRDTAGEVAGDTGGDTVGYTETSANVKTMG

[4] = molecular target: 3',5'-cyclic-AMP phosphodiesterase 4D (Homo sapiens, UniProt Q08499); format: functional
Sequence of 3',5'-cyclic-AMP phosphodiesterase 4D (Q08499 whole entry): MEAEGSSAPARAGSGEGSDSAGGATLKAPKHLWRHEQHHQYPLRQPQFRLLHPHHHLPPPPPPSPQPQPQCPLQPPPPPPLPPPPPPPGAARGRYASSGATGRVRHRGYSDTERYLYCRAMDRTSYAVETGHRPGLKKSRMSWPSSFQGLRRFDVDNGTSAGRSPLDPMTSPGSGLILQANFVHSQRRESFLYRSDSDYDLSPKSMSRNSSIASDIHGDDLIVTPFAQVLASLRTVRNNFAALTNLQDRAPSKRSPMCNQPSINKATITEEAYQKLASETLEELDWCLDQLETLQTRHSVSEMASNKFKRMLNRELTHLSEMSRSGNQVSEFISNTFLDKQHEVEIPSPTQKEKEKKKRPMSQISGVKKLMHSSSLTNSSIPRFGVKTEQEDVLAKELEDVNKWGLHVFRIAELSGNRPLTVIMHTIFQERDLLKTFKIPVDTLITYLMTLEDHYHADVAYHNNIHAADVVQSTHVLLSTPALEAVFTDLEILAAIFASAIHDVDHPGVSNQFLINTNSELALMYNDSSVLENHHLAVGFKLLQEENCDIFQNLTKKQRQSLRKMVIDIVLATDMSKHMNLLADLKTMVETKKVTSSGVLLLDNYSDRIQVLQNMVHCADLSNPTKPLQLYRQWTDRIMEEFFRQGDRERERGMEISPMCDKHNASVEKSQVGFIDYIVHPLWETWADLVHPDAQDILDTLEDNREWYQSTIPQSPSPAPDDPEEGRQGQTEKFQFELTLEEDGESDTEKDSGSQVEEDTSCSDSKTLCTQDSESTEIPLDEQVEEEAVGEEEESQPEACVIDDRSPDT

Thromboxane A2 receptor = molecular target: T3, Thromboxane A2 receptor (Homo sapiens, UniProt P21731)
T3 sequence (P21731 whole entry): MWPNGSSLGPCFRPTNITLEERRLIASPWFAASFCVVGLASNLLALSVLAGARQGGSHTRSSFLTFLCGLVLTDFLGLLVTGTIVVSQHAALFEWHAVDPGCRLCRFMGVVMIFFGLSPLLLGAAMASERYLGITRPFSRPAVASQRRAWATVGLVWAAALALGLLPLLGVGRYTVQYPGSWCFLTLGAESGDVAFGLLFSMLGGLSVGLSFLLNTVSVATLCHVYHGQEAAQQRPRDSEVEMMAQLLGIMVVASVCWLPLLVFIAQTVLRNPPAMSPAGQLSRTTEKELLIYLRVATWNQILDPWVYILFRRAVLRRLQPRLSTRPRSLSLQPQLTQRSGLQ

[5] = molecular target: Sodium-dependent dopamine transporter (Homo sapiens, UniProt Q01959)
Sequence of Sodium-dependent dopamine transporter (Q01959 whole entry): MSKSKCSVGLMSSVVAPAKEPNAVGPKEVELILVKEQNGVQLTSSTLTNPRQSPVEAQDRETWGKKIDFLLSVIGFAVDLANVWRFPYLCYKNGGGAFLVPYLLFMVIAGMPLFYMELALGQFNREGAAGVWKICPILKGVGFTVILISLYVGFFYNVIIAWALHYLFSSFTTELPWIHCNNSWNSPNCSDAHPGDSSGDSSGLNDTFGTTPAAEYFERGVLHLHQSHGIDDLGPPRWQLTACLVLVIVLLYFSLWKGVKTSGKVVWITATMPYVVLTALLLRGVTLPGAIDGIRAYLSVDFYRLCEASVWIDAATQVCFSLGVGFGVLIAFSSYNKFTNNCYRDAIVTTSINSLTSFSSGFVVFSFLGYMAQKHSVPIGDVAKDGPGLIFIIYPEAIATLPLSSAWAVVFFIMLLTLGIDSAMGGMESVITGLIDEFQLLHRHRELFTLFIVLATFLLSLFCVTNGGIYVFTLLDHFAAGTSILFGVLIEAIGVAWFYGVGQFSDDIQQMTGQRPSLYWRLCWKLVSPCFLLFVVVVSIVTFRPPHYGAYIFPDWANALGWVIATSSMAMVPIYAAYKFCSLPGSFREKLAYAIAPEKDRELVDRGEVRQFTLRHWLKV

[6] = molecular target: Sodium-dependent noradrenaline transporter (Homo sapiens, UniProt P23975)
Sequence of Sodium-dependent noradrenaline transporter (P23975 whole entry): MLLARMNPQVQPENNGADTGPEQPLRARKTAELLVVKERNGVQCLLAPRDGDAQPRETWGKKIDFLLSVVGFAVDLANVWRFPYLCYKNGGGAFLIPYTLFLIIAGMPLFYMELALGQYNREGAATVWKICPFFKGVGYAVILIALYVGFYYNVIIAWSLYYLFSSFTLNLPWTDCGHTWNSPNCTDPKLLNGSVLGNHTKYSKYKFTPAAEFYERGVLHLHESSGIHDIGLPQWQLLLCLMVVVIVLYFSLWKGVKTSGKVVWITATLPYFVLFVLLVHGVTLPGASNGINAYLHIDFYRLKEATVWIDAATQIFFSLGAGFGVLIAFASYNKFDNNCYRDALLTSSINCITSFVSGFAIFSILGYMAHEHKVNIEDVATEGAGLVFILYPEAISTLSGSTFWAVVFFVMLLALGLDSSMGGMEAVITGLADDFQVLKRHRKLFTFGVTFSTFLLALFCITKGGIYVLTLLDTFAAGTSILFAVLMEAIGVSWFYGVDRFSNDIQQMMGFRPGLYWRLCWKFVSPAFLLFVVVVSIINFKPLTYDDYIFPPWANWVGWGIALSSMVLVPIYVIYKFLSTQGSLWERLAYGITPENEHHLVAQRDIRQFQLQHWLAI
Also: assay procedure not described here.

HYDROXOCOBALAMIN showed an AC50 [1] of over 30 µM, an AC50 (Androgen receptor) of over 10 µM and an AC50 (Vasopressin V1a receptor) of over 30 µM. The AC50 [2] was over 30 µM, the AC50 [3] was over 30 µM and the AC50 (Motilin receptor) was over 30 µM. For the same sequence, the AC50 [4] was over 30 µM, the AC50 (Thromboxane A2 receptor) was over 30 µM and the AC50 [5] was over 30 µM. It also gave an AC50 [6] of over 30 µM.
